# pEC50, pIC50: −log10 of the molar value.
# How the values were obtained:
# [1] = Agonist activity at human dopamine D2 receptor expressed in HEK293 cells by mitogenesis assay
# [2] = Antagonist activity at human dopamine D3 receptor expressed in HEK293 cells by mitogenesis assay
# [3] = Antagonist activity at human dopamine D2 receptor expressed in HEK293 cells by mitogenesis assay
SMILES,pEC50 [1],pIC50 [2],pIC50 [3]
"O=C(NC[C@H]1C[C@@H]1CN1CCN(c2cccc(Cl)c2Cl)CC1)c1ccc(-c2ccccn2)cc1 [N-(2-(4-(2,3-dichlorophenyl)piperazin-1-ylmethyl)-trans-cyclopropylmethyl)-4-pyridin-2-ylbenzamide]",6.82,7.84,6.17
COc1ccccc1N1CCN(CCCCNC(=O)c2ccc3c(c2)Cc2ccccc2-3)CC1 [N-(4-(4-(2-methoxyphenyl)piperazin-1-yl)butyl)-9H-fluorene-2-carboxamide],–,8.66,–
COc1ccccc1N1CCN(CCCCNC(=O)c2ccc(-c3ccccn3)cc2)CC1 [N-(4-(4-(2-methoxyphenyl)piperazin-1-yl)butyl)-4-pyridin-2-ylbenzamide],–,8.54,–
"O=C(NCCCCN1CCN(c2cccc(Cl)c2Cl)CC1)c1ccc(-c2ccccn2)cc1 [N-{4-[4-(2,3-Dichloro-phenyl)-piperazin-1-yl]-butyl}-4-pyridin-2-yl-benzamide]",7.04,–,–

# Reference: BindingDB's records for doi:10.1021/jm0704200
